# According to ChEMBL document CHEMBL3885861, “Open TG-GATES”:
# Organism: Rattus norvegicus
# Experiment: Open TG-GATES - Regimen: Single
# Type: toxicity, organism-based, Sprague-Dawley
# Parameters: regimen Single, gender Male, age 6 weeks
# Settings: in vivo, po, route gavage; for KIDNEY_L / KIDNEY_R / KIDNEY_TOTAL: tissue Kidney; for ALP / ALT / BUN / CRE / DBIL / GLC / IP / K / Na / RALB / TBIL / TG / TP / gamma-GTP / PL: tissue Plasma; for LIVER: tissue Liver
# [1] = 10 mg/kg, 3 h, tissue Blood, dose level Middle
# [2] = 10 mg/kg, 3 h, dose level Middle
# [3] = 10 mg/kg, 6 h, dose level Middle
# [4] = 10 mg/kg, 6 h, tissue Blood, dose level Middle
# [5] = 10 mg/kg, 9 h, dose level Middle
# [6] = 10 mg/kg, 9 h, tissue Blood, dose level Middle
# [7] = 10 mg/kg, 24 h, dose level Middle
# [8] = 10 mg/kg, 24 h, tissue Blood, dose level Middle
# [9] = 30 mg/kg, 3 h, tissue Blood, dose level High
# [10] = 30 mg/kg, 6 h, tissue Blood, dose level High
# [11] = 30 mg/kg, 9 h, tissue Blood, dose level High
# [12] = 30 mg/kg, 24 h, dose level High
# [13] = 30 mg/kg, 24 h, tissue Blood, dose level High
compound,measurement,setting,value
CNCCC(Oc1ccc(C(F)(F)F)cc1)c1ccccc1.Cl (centres undefined) [FLUOXETINE HYDROCHLORIDE],Bas,[1],0%
same,Eos,[1],1.2%
same,Ht,[1],41.6%
same,Lym,[1],68.4%
same,MCHC,[1],32.1%
same,Ret,[1],8.7%
same,WBC,[1],85.2 x10_2/uL
same,KIDNEY_L,[2],1 g
same,KIDNEY_R,[2],1 g
same,KIDNEY_TOTAL,[2],2 g
same,ALP,[2],1509 IU/L
same,ALT,[2],36.6 IU/L
same,BUN,[2],13.8 mg/dL
same,CRE,[2],0.4 mg/dL
same,DBIL,[2],0.014 mg/dL
same,GLC,[2],201.4 mg/dL
same,IP,[2],10.3 mg/dL
same,K,[2],5.2 meq/L
same,Na,[2],138.6 meq/L
same,RALB,[2],4.1 g/dL
same,TBIL,[2],0.042 mg/dL
same,TG,[2],128.6 mg/dL
same,TP,[2],5.9 g/dL
same,gamma-GTP,[2],0 IU/L
same,TERMINAL_BW,[3],215.2 g
same,Bas,[4],0%
same,Eos,[4],1%
same,Ht,[4],40.8%
same,Lym,[4],70%
same,MCH,[4],21.9 pg
same,MCHC,[4],32.6%
same,Ret,[4],8.2%
same,WBC,[4],96.4 x10_2/uL
same,KIDNEY_L,[3],0.9 g
same,KIDNEY_R,[3],1 g
same,KIDNEY_TOTAL,[3],1.9 g
same,LIVER,[3],10 g
same,ALP,[3],1142 IU/L
same,ALT,[3],32.8 IU/L
same,BUN,[3],10.8 mg/dL
same,CRE,[3],0.4 mg/dL
same,DBIL,[3],0.008 mg/dL
same,GLC,[3],193.8 mg/dL
same,IP,[3],9.7 mg/dL
same,K,[3],4.9 meq/L
same,Na,[3],137.4 meq/L
same,RALB,[3],3.9 g/dL
same,TBIL,[3],0.038 mg/dL
same,TG,[3],85.8 mg/dL
same,TP,[3],5.4 g/dL
same,gamma-GTP,[3],1 IU/L
same,TERMINAL_BW,[5],214.8 g
same,Bas,[6],0%
same,Eos,[6],1%
same,Ht,[6],40.2%
same,Lym,[6],75.6%
same,MCHC,[6],32.5%
same,Ret,[6],7.8%
same,WBC,[6],95 x10_2/uL
same,KIDNEY_L,[5],1 g
same,KIDNEY_R,[5],1 g
same,KIDNEY_TOTAL,[5],1.9 g
same,LIVER,[5],9.2 g
same,ALP,[5],1045.4 IU/L
same,ALT,[5],28.8 IU/L
same,BUN,[5],10.6 mg/dL
same,CRE,[5],0.4 mg/dL
same,DBIL,[5],0.006 mg/dL
same,GLC,[5],191 mg/dL
same,IP,[5],10.8 mg/dL
same,K,[5],5 meq/L
same,Na,[5],137.9 meq/L
same,PL,[5],135 mg/dL
same,RALB,[5],3.8 g/dL
same,TBIL,[5],0.04 mg/dL
same,TG,[5],41.4 mg/dL
same,TP,[5],5.3 g/dL
same,gamma-GTP,[5],0.6 IU/L
same,TERMINAL_BW,[7],227.3 g
same,Bas,[8],0%
same,Eos,[8],1%
same,Ht,[8],41.2%
same,Lym,[8],76.2%
same,MCHC,[8],32.6%
same,Ret,[8],7.7%
same,WBC,[8],100.4 x10_2/uL
same,KIDNEY_L,[7],1 g
same,KIDNEY_R,[7],1 g
same,KIDNEY_TOTAL,[7],1.9 g
same,LIVER,[7],11 g
same,ALP,[7],1378 IU/L
same,ALT,[7],34.6 IU/L
same,BUN,[7],16.4 mg/dL
same,CRE,[7],0.4 mg/dL
same,DBIL,[7],0.01 mg/dL
same,GLC,[7],192.6 mg/dL
same,IP,[7],7.9 mg/dL
same,K,[7],5.1 meq/L
same,Na,[7],138.1 meq/L
same,RALB,[7],3.9 g/dL
same,TBIL,[7],0.034 mg/dL
same,TG,[7],152.6 mg/dL
same,TP,[7],5.5 g/dL
same,gamma-GTP,[7],1 IU/L
same,TERMINAL_BW,"30 mg/kg, 3 h, dose level High",214.6 g
same,Bas,[9],0%
same,Eos,[9],1.2%
same,Ht,[9],39.9%
same,Lym,[9],67.4%
same,MCHC,[9],32.6%
same,Ret,[9],8.7%
same,WBC,[9],79.4 x10_2/uL
same,KIDNEY_L,"30 mg/kg, 3 h, dose level High",0.9 g
same,KIDNEY_R,"30 mg/kg, 3 h, dose level High",1 g
same,KIDNEY_TOTAL,"30 mg/kg, 3 h, dose level High",1.9 g
same,LIVER,"30 mg/kg, 3 h, dose level High",9.8 g
same,ALP,"30 mg/kg, 3 h, dose level High",1364.6 IU/L
same,ALT,"30 mg/kg, 3 h, dose level High",36.4 IU/L
same,BUN,"30 mg/kg, 3 h, dose level High",10.6 mg/dL
same,CRE,"30 mg/kg, 3 h, dose level High",0.4 mg/dL
same,DBIL,"30 mg/kg, 3 h, dose level High",0.01 mg/dL
same,GLC,"30 mg/kg, 3 h, dose level High",201.4 mg/dL
same,IP,"30 mg/kg, 3 h, dose level High",10.1 mg/dL
same,K,"30 mg/kg, 3 h, dose level High",4.4 meq/L
same,Na,"30 mg/kg, 3 h, dose level High",138.6 meq/L
same,RALB,"30 mg/kg, 3 h, dose level High",4.1 g/dL
same,TBIL,"30 mg/kg, 3 h, dose level High",0.048 mg/dL
same,TG,"30 mg/kg, 3 h, dose level High",77.8 mg/dL
same,TP,"30 mg/kg, 3 h, dose level High",5.7 g/dL
same,gamma-GTP,"30 mg/kg, 3 h, dose level High",0.2 IU/L
same,TERMINAL_BW,"30 mg/kg, 6 h, dose level High",217.1 g
same,Bas,[10],0%
same,Eos,[10],1.2%
same,Ht,[10],42%
same,Lym,[10],73.2%
same,MCHC,[10],32.3%
same,Ret,[10],6.9%
same,WBC,[10],82.6 x10_2/uL
same,KIDNEY_L,"30 mg/kg, 6 h, dose level High",0.9 g
same,KIDNEY_R,"30 mg/kg, 6 h, dose level High",1 g
same,KIDNEY_TOTAL,"30 mg/kg, 6 h, dose level High",1.9 g
same,LIVER,"30 mg/kg, 6 h, dose level High",9.3 g
same,ALP,"30 mg/kg, 6 h, dose level High",1193 IU/L
same,ALT,"30 mg/kg, 6 h, dose level High",31 IU/L
same,BUN,"30 mg/kg, 6 h, dose level High",9.2 mg/dL
same,CRE,"30 mg/kg, 6 h, dose level High",0.4 mg/dL
same,DBIL,"30 mg/kg, 6 h, dose level High",0.01 mg/dL
same,GLC,"30 mg/kg, 6 h, dose level High",198.8 mg/dL
same,IP,"30 mg/kg, 6 h, dose level High",9.9 mg/dL
same,K,"30 mg/kg, 6 h, dose level High",5.2 meq/L
same,Na,"30 mg/kg, 6 h, dose level High",137.7 meq/L
same,PL,"30 mg/kg, 6 h, dose level High",134.4 mg/dL
same,RALB,"30 mg/kg, 6 h, dose level High",3.8 g/dL
same,TBIL,"30 mg/kg, 6 h, dose level High",0.038 mg/dL
same,TG,"30 mg/kg, 6 h, dose level High",47.2 mg/dL
same,TP,"30 mg/kg, 6 h, dose level High",5.4 g/dL
same,gamma-GTP,"30 mg/kg, 6 h, dose level High",1 IU/L
same,TERMINAL_BW,"30 mg/kg, 9 h, dose level High",211.4 g
same,Bas,[11],0%
same,Eos,[11],0.8%
same,Ht,[11],40.9%
same,Lym,[11],77.8%
same,MCHC,[11],32.4%
same,Ret,[11],7.1%
same,WBC,[11],90.6 x10_2/uL
same,KIDNEY_L,"30 mg/kg, 9 h, dose level High",0.9 g
same,KIDNEY_R,"30 mg/kg, 9 h, dose level High",1 g
same,KIDNEY_TOTAL,"30 mg/kg, 9 h, dose level High",1.9 g
same,LIVER,"30 mg/kg, 9 h, dose level High",9 g
same,ALP,"30 mg/kg, 9 h, dose level High",1165 IU/L
same,ALT,"30 mg/kg, 9 h, dose level High",28.8 IU/L
same,BUN,"30 mg/kg, 9 h, dose level High",8.4 mg/dL
same,CRE,"30 mg/kg, 9 h, dose level High",0.4 mg/dL
same,DBIL,"30 mg/kg, 9 h, dose level High",0.01 mg/dL
same,GLC,"30 mg/kg, 9 h, dose level High",202.8 mg/dL
same,IP,"30 mg/kg, 9 h, dose level High",11.1 mg/dL
same,K,"30 mg/kg, 9 h, dose level High",5.1 meq/L
same,Na,"30 mg/kg, 9 h, dose level High",138.2 meq/L
same,PL,"30 mg/kg, 9 h, dose level High",145.2 mg/dL
same,RALB,"30 mg/kg, 9 h, dose level High",3.9 g/dL
same,TBIL,"30 mg/kg, 9 h, dose level High",0.048 mg/dL
same,TG,"30 mg/kg, 9 h, dose level High",53 mg/dL
same,TP,"30 mg/kg, 9 h, dose level High",5.4 g/dL
same,gamma-GTP,"30 mg/kg, 9 h, dose level High",0.2 IU/L
same,TERMINAL_BW,[12],222.3 g
same,Bas,[13],0%
same,Eos,[13],1%
same,Ht,[13],40.1%
same,Lym,[13],75.4%
same,MCHC,[13],32.6%
same,Ret,[13],7.8%
same,WBC,[13],81 x10_2/uL
same,KIDNEY_L,[12],1 g
same,KIDNEY_R,[12],1 g
same,KIDNEY_TOTAL,[12],2 g
same,LIVER,[12],10.5 g
same,ALP,[12],1406.6 IU/L
same,ALT,[12],31 IU/L
same,CRE,[12],0.4 mg/dL
same,DBIL,[12],0.01 mg/dL
same,GLC,[12],200 mg/dL
same,IP,[12],8 mg/dL
same,K,[12],5.2 meq/L
same,Na,[12],138.1 meq/L
same,RALB,[12],4 g/dL
same,TBIL,[12],0.028 mg/dL
same,TG,[12],100.4 mg/dL
same,TP,[12],5.7 g/dL
same,gamma-GTP,[12],1 IU/L
